Measured values reported in patent publication US9242981B2, “Fused pyrazole derivatives as novel ERK inhibitors” (Merck Sharp & Dohme Corp., priority 2010, dated 2016).

Biological target: Mouse ERK2 protein (Mus musculus (Mouse), UniProt P63085)
Test: Coupled MEK1/ERK2 IMAP assay or Active ERK2 IMAP assay
Assay type: biochemical
Details: Table 1, class symbols, 30 μM ATP
Method: 14 μl of kinase buffer (10 mM Tris.HCl pH 7.2, 10 mM MgCl2, 0.01% Tween-20, 1 mM DTT) containing 0.4 ng unphosphorylated Mouse ERK2 protein is added to each well of a black 384-well assay plate. […] DMSO concentration during initial incubation is 6.7%. […] DMSO concentration during ERK activation was 4%. After one hour, reactions are terminated by addition of 60 μl IMAP detections beads in binding buffer (Molecular Devices). Binding is allowed to equilibrate for 30 minutes before reading the plate on an LJL Analyst Fluorescence Polarization plate reader.
Activated ERK2 activity was also determined in the IMAP assay format using the procedure outlined above. […] Reactions proceeded for 30 minutes before termination by addition of […] IMAP detection beads in binding buffer. Plates were read as above after 30 minute binding equilibration.

Mouse ERK2 protein, sequence (P63085 whole entry): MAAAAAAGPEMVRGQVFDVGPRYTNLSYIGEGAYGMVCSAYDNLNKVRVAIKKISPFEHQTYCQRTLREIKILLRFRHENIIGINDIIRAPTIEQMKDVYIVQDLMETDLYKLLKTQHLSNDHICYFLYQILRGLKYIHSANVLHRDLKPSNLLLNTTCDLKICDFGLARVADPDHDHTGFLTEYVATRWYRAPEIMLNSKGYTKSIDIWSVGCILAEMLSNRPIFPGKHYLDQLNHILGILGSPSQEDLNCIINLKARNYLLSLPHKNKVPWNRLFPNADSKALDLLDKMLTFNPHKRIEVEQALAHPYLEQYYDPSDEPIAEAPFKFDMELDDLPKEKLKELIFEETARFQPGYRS

| IC50 | Structure (SMILES) |
| --- | --- |
| < 20 nM | O=C(N[C@@H]1CCCN(Cc2ccsc2)C1)N1CCc2[nH]nc(-c3ccncc3)c2C1 [Compound 56, 1,4,6,7-tetrahydro-3-(4-pyridinyl)-N-[1-(3-thienylmethyl)-3(R)-piperidinyl]-5H-pyrazolo[4,3-c]pyridine-5-carboxamide] |
| 101 to 1000 nM | O=C(N[C@@H]1CCCN(Cc2ncc[nH]2)C1)N1CCc2[nH]nc(-c3ccncc3)c2C1 [Compound 63, 1,4,6,7-tetrahydro-N-[1-(1H-imidazoL-2-ylmethyl)-3(R)-piperidinyl]-3-(4-pyridinyl)-5H-pyrazolo[4,3-c]pyridine-5-carboxamide] |
| 101 to 1000 nM | Cn1cnc(CN2CCC[C@@H](NC(=O)N3CCc4[nH]nc(-c5ccncc5)c4C3)C2)c1 [Compound 64, 1,4,6,7-tetrahydro-N-[1-[(1-methyl-1H-imidazoL-4-yl)methyl]-3(R)-piperidinyl]-3-(4-pyridinyl)-5H-pyrazolo[4,3-c]pyridine-5-carboxamide] |
| 101 to 1000 nM | Cn1ccc(CN2CCC[C@@H](NC(=O)N3CCc4[nH]nc(-c5ccncc5)c4C3)C2)n1 [Compound 65, 1,4,6,7-tetrahydro-N-[1-[(1-methyl-1H-pyrazol-3-yl)methyl]-3(R)-piperidinyl]-3-(4-pyridinyl)-5H-pyrazolo[4,3-c]pyridine-5-carboxamide] |
| < 20 nM | O=C(N[C@@H]1CCCN(Cc2c(F)cccc2Cl)C1)N1CCc2[nH]nc(-c3ccncc3)c2C1 [Compound 66, N-[1-[(2-chloro-6-fluorophenyl)methyl]-3(R)-piperidinyl]-1,4,6,7-tetrahydro-3-(4-pyridinyl)-5H-pyrazolo[4,3-c]pyridine-5-carboxamide] |
| 21 to 100 nM | O=C(N[C@@H]1CCCN(Cc2ccccc2C(F)(F)F)C1)N1CCc2[nH]nc(-c3ccncc3)c2C1 [Compound 67, 1,4,6,7-tetrahydro-3-(4-pyridinyl)-N-[1-[[2-(trifluoromethyl)phenyl]meth-yl]-3(R)-piperidinyl]-5H-pyrazolo[4,3-c]pyridine-5-carboxamide] |
| 21 to 100 nM | O=C(N[C@@H]1CCCN(Cc2c(F)cccc2C(F)(F)F)C1)N1CCc2[nH]nc(-c3ccncc3)c2C1 [Compound 68, N-[1-[[2-fluoro-6-(trifluoromethyl)phenyl]meth-yl]-3(R)-piperidinyl]-1,4,6,7-tetrahydro-3-(4-pyridinyl)-5H-pyrazolo[4,3-c]pyridine-5-carboxamide] |
| 21 to 100 nM | COc1ccccc1CN1CCC[C@@H](NC(=O)N2CCc3[nH]nc(-c4ccncc4)c3C2)C1 [Compound 70, 1,4,6,7-tetrahydro-N-[1-[(2-methoxyphenyl)methyl]-3(R)-piperidinyl]-3-(4-pyridinyl)-5H-pyrazolo[4,3-c]pyridine-5-carboxamide] |
| 21 to 100 nM | COC(=O)c1ccccc1CN1CCC[C@@H](NC(=O)N2CCc3[nH]nc(-c4ccncc4)c3C2)C1 [Compound 72, methyl 2-[[3(R)-[[[1,4,6,7-tetrahydro-3-(4-pyridinyl)-5H-pyrazolo[4,3-c]pyridin-5-yl]carbonyl]amino]-1-piperidinyl]methyl]benzoate] |
| 101 to 1000 nM | COc1cccc(OC)c1CN1CCC[C@@H](NC(=O)N2CCc3[nH]nc(-c4ccncc4)c3C2)C1 [Compound 73] |
| 101 to 1000 nM | O=C(N[C@@H]1CCCN(Cc2ccccc2N2CCOCC2)C1)N1CCc2[nH]nc(-c3ccncc3)c2C1 [Compound 74, 1,4,6,7-tetrahydro-N-[1-[[2-(4-morpholinyl)phenyl]-methyl]-3(R)-piperidinyl]-3-(4-pyridinyl)-5H-pyrazolo[4,3-c]pyridine-5-carboxamide] |
| 21 to 100 nM | Cc1cc(-c2n[nH]c3c2CN(C(=O)N[C@@H]2CCCN(Cc4c(F)cccc4F)C2)CC3)ccn1 [Compound 81, N-[1-[(2,6-difluorophenyl)-methyl]-3(R)-piperidinyl]-1,4,6,7-tetrahydro-3-(2-methyl-4-pyridinyl)-5H-pyrazolo[4,3-c]pyridine-5-carboxamide] |
| 101 to 1000 nM | COC(=O)C1CC(NC(=O)N2CCc3[nH]nc(-c4ccnc(C)c4)c3C2)CN(Cc2c(F)cccc2F)C1 (stereo not shown) [Compound 82, methyl 1-[(2,6-difluorophenyl)methyl]-5-[[[1,4,6,7-tetrahydro-3-(2-methyl-4-pyridinyl)-5H-pyrazolo[4,3-c]pyridin-5-yl]carbonyl]amino]-3-piperidinecarboxylate] |
| 101 to 1000 nM | Cc1cc(-c2n[nH]c3c2CN(C(=O)NC2CC(C(=O)O)CN(Cc4c(F)cccc4F)C2)CC3)ccn1 (stereo not shown) [Compound 83, 1-[(2,6-difluorophenyl)-methyl]-5-[[[1,4,6,7-tetrahydro-3-(2-methyl-4-pyridinyl)-5H-pyrazolo[4,3-c]pyridin-5-yl]carbonyl]amino]-3-piperidinecarboxylic acid] |
| < 20 nM | Cc1cc(-c2n[nH]c3c2CN(C(=O)NC2CCCN(Cc4c(F)cccc4Cl)C2)CC3)ccn1 (stereo not shown) [Compound 85, N-[1-[(2-chloro-6-fluorophenyl)methyl]-3-piperidinyl]-1,4,6,7-tetrahydro-3-(2-methyl-4-pyridinyl)-5H-pyrazolo[4,3-c]pyridine-5-carboxamide] |
| 21 to 100 nM | Cc1cc(-c2n[nH]c3c2CN(C(=O)NC2CC(CO)CN(Cc4c(F)cccc4F)C2)CC3)ccn1 (stereo not shown) [Compound 86, N-[1-[(2,6-difluorophenyl)-methyl]-5-(hydroxymethyl)-3-piperidinyl]-1,4,6,7-tetrahydro-3-(2-methyl-4-pyridinyl)-5H-pyrazolo[4,3-c]pyridine-5-carboxamide] |
| 101 to 1000 nM | Cc1cc(-c2n[nH]c3c2CN(C(=O)NC2(C)CCCN(Cc4c(F)cccc4F)C2)CC3)ccn1 (stereo not shown) [Compound 87, N-[1-[(2,6-difluorophenyl)-methyl]-3-methyl-3-piperidinyl]-1,4,6,7-tetrahydro-3-(2-methyl-4-pyridinyl)-5H-pyrazolo[4,3-c]pyridine-5-carboxamide] |
| 101 to 1000 nM | Cc1cc(-c2n[nH]c3c2CN(C(=O)NC2(C)CCCN(Cc4csc5ccccc45)C2)CC3)ccn1 (stereo not shown) [Compound 88, N-[1-(benzo[b]thien-3-ylmethyl)-3-methyl-3-piperidinyl]-1,4,6,7-tetrahydro-3-(2-methyl-4-pyridinyl)-5H-pyrazolo[4,3-c]pyridine-5-carboxamide] |
| 21 to 100 nM | Cc1cc(-c2n[nH]c3c2CN(C(=O)NC2CC(C)CN(Cc4c(F)cccc4F)C2)CC3)ccn1 (stereo not shown) [Compound 89, N-[1-[(2,6-difluorophenyl)-methyl]-5-methyl-3-piperidinyl]-1,4,6,7-tetrahydro-3-(2-methyl-4-pyridinyl)-5H-pyrazolo[4,3-c]pyridine-5-carboxamide] |
| 21 to 100 nM | COc1cccc(F)c1CN1CC(C)CC(NC(=O)N2CCc3[nH]nc(-c4ccnc(C)c4)c3C2)C1 (stereo not shown) [Compound 90, N-[1-[(2-fluoro-6-methoxyphenyl)methyl]-5-methyl-3-piperidinyl]-1,4,6,7-tetrahydro-3-(2-methyl-4-pyridinyl)-5H-pyrazolo[4,3-c]pyridine-5-carboxamide] |
| < 20 nM | Cc1cc(-c2n[nH]c3c2CN(C(=O)NC2CC(C)CN(Cc4c(F)cccc4Cl)C2)CC3)ccn1 (stereo not shown) [Compound 91, N-[1-[(2-chloro-6-fluorophenyl)methyl]-5-methyl-3-piperidinyl)-1,4,6,7-tetrahydro-3-(2-methyl-4-pyridinyl)-5H-pyrazolo[4,3-c]pyridine-5-carboxamide] |
| 101 to 1000 nM | CCC1(NC(=O)N2CCc3[nH]nc(-c4ccnc(C)c4)c3C2)CCCN(Cc2c(F)cccc2F)C1 (stereo not shown) [Compound 92, N-[1-[(2,6-difluorophenyl)-methyl]-3-ethyl-3-piperidinyl]-1,4,6,7-tetrahydro-3-(2-methyl-4-pyridinyl)-5H-pyrazolo[4,3-c]pyridine-5-carboxamide] |
| 101 to 1000 nM | CCC1(NC(=O)N2CCc3[nH]nc(-c4ccnc(C)c4)c3C2)CCCN(Cc2csc3ccccc23)C1 (stereo not shown) [Compound 93, N-[1-(benzo[b]thien-3-ylmethyl)-3-ethyl-3-piperidinyl]-1,4,6,7-tetrahydro-3-(2-methyl-4-pyridinyl)-5H-pyrazolo[4,3-c]pyridine-5-carboxamide] |
| 21 to 100 nM | Cc1cc(-c2n[nH]c3c2CN(C(=O)NC2CC(C)CN(Cc4c(C)cccc4C)C2)CC3)ccn1 (stereo not shown) [Compound 94, N-[1-[(2,6-dimethylphenyl)-methyl]-5-methyl-3-piperidinyl]-1,4,6,7-tetrahydro-3-(2-methyl-4-pyridinyl)-5H-pyrazolo[4,3-c]pyridine-5-carboxamide] |
| 101 to 1000 nM | Cc1cc(-c2n[nH]c3c2CN(C(=O)NC2CC(C)CN(Cc4c(F)cccc4C(F)(F)F)C2)CC3)ccn1 (stereo not shown) [Compound 95, N-[1-[[2-fluoro-6-(trifluoro-methyl)phenyl]methyl]-5-methyl-3-piperidinyl]-1,4,6,7-tetrahydro-3-(2-methyl-4-pyridinyl)-5H-pyrazolo[4,3-c]pyridine-5-carboxamide] |
| 101 to 1000 nM | Cc1cc(-c2n[nH]c3c2CN(C(=O)NC2CC(C)CN(Cc4cnc5ccccc5c4)C2)CC3)ccn1 (stereo not shown) [Compound 96, 1,4,6,7-tetrahydro-3-(2-methyl-4-pyridinyl)-N-[5-methyl-1-(3-quinolinylmethyl)-3-piperidinyl]-5H-pyrazolo[4,3-c]pyridine-5-carboxamide] |
| 21 to 100 nM | COc1ccc2ccccc2c1CN1CCC[C@@H](NC(=O)N2CCc3[nH]nc(-c4ccnc(C)c4)c3C2)C1 [Compound 97, 1,4,6,7-tetrahydro-N-[1-[(2-Methoxy-1-naphthalenyl)-methyl]-3(R)-piperidinyl]-3-(2-methyl-4-pyridinyl)-5H-pyrazolo[4,3-c]pyridine-5-carboxamide] |
| 101 to 1000 nM | Cc1cc(-c2n[nH]c3c2CN(C(=O)N[C@@H]2CCCN(Cc4ccnc5ccccc45)C2)CC3)ccn1 [Compound 98] |
